Data from PubChem BioAssay AID248 (DTP/NCI, 2004).
Several values for one entry are separate records, joined by “and”; a condition that tells them apart may be missing. Equal entries are not always repeated. Inconclusive results and toxic doses are left out. Cut-off read from the data, not from the text of the source: active = T/C of 150% or more; inactive = T/C below 125%.

System: L1210 leukemia ip in BDF1 mice, survival T/C
Assay: NCI In Vivo Anticancer Drug Screen. Data for tumor model L1210 Leukemia (intraperitoneal) in B6D2F1 (BDF1) mice
Details: endpoint: mean survival time, higher = longer survival
Summary of the method: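 Read-out is survival time, reported as the treated-group measurement over the vehicle-control measurement.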

[1] = dose: 100.0 mg/kg/injection, schedule: Q01DX009 (ip), vehicle: Klucel (hydroxypropylcellulose) (HPC)
[2] = dose: 100.0 mg/kg/injection, schedule: Q04DX003 (ip), vehicle: Klucel (hydroxypropylcellulose) (HPC)
[3] = dose: 200.0 mg/kg/injection, schedule: Q01DX009 (ip), vehicle: Klucel (hydroxypropylcellulose) (HPC)
[4] = dose: 200.0 mg/kg/injection, schedule: Q04DX003 (ip), vehicle: Klucel (hydroxypropylcellulose) (HPC)
[5] = dose: 400.0 mg/kg/injection, schedule: Q04DX003 (ip), vehicle: Klucel (hydroxypropylcellulose) (HPC)
[6] = dose: 100.0 mg/kg/injection, schedule: Q04DX003 (ip), vehicle: saline with Tween-80
[7] = dose: 200.0 mg/kg/injection, schedule: Q04DX003 (ip), vehicle: saline with Tween-80
[8] = dose: 400.0 mg/kg/injection, schedule: Q04DX003 (ip), vehicle: saline with Tween-80
[9] = dose: 100.0 mg/kg/injection, schedule: Q01DX001 (ip), vehicle: saline
[10] = dose: 200.0 mg/kg/injection, schedule: Q01DX001 (ip), vehicle: saline
[11] = dose: 50.0 mg/kg/injection, schedule: Q01DX001 (ip), vehicle: carboxymethylcellulose (CMC)
[12] = dose: 50.0 mg/kg/injection, schedule: Q04DX002 (ip), vehicle: Klucel (hydroxypropylcellulose) (HPC)
[13] = dose: 100.0 mg/kg/injection, schedule: Q04DX002 (ip), vehicle: Klucel (hydroxypropylcellulose) (HPC)
[14] = dose: 200.0 mg/kg/injection, schedule: Q04DX002 (ip), vehicle: Klucel (hydroxypropylcellulose) (HPC)
[15] = dose: 400.0 mg/kg/injection, schedule: Q01DX001 (ip), vehicle: saline
[16] = dose: 400.0 mg/kg/injection, schedule: Q04DX002 (ip), vehicle: Klucel (hydroxypropylcellulose) (HPC)

Measured: T/C

COc1ccc(COC(=O)Nc2ccc(Cl)c(Cl)c2)cc1OC
inactive: [1] 95 % of control | [2] 101 % of control | [3] 88 % of control | [4] 106 % of control | dose: 400.0 mg/kg/injection, schedule: Q01DX009 (ip), vehicle: Klucel (hydroxypropylcellulose) (HPC) 95 % of control | [5] 90 % of control

CC1(C)C2CCC(C2)C1C(=O)O (stereo not given)
inactive: [6] 95 % of control | [7] 91 % of control | [8] 100 % of control

O=C(/C=C/c1ccccc1)N/N=C/c1cccs1
inactive: [1] 86 % of control | [3] 88 % of control

CC(=O)N(CCCc1ccccc1)C(C)(C)C
inactive: dose: 50.0 mg/kg/injection, schedule: Q01DX009 (ip), vehicle: saline 104 % of control | [9] 110 % of control | dose: 100.0 mg/kg/injection, schedule: Q01DX009 (ip), vehicle: saline 110 % of control | [10] 114 % of control

c1ccc2c(CNC3CCCCC3)c[nH]c2c1
inactive: [11] 90 % of control | [2] 90 % of control | [4] 97 % of control | [5] 98 % of control

CCOC1c2cc(OC)ccc2C(=O)CCN1S(=O)(=O)c1ccc(C)cc1 (stereo not given)
inactive: [2] 92 % of control | [4] 91 % of control | [5] 96 % of control

Nc1cnccc1Nc1ccncc1
inactive: [6] 96 % of control | [7] 96 % of control

CN1C(=O)C2(c3ccccc31)C1CC3C(CO1)C1C2C3(CO)C[N+]1(C)C (stereo not given)
inactive: [9] 97 % of control | [10] 102 % of control

NC(CCCC(N)C(=O)O)C(=O)O (stereo not given)
inactive: dose: 12.5 mg/kg/injection, schedule: Q04DX002 (ip), vehicle: saline 103 % of control | dose: 25.0 mg/kg/injection, schedule: Q04DX002 (ip), vehicle: saline 100 % of control | [12] 96 % of control | dose: 50.0 mg/kg/injection, schedule: Q04DX002 (ip), vehicle: saline 93 % of control | [13] 101 % of control | [14] 93 % of control

NCCCC(N)C(=O)NCCCCCCNCCCCCCNC(=O)C(N)CCCN (stereo not given)
inactive: dose: 0.38 mg/kg/injection, schedule: Q01DX Z (ip), vehicle: saline 94 % of control | dose: 0.75 mg/kg/injection, schedule: Q01DX Z (ip), vehicle: saline 102 % of control | dose: 1.5 mg/kg/injection, schedule: Q01DX Z (ip), vehicle: saline 98 % of control | dose: 3.0 mg/kg/injection, schedule: Q01DX Z (ip), vehicle: saline 100 % of control and 106 % of control | dose: 10.0 mg/kg/injection, schedule: Q01DX Z (ip), vehicle: saline 93 % of control | dose: 30.0 mg/kg/injection, schedule: Q01DX Z (ip), vehicle: saline 96 % of control | dose: 50.0 mg/kg/injection, schedule: Q01DX001 (ip), vehicle: saline 101 % of control | [9] 98 % of control | dose: 100.0 mg/kg/injection, schedule: Q01DX Z (ip), vehicle: saline 91 % of control | [10] 95 % of control

O=[N+]([O-])c1ccc(Oc2ccccc2[N+](=O)[O-])cc1
inactive: dose: 222.0 mg/kg/injection, schedule: Q01DX Z (ip), vehicle: methylcellulose (MC) 95 % of control | dose: 333.0 mg/kg/injection, schedule: Q01DX Z (ip), vehicle: methylcellulose (MC) 95 % of control | dose: 500.0 mg/kg/injection, schedule: Q01DX Z (ip), vehicle: methylcellulose (MC) 86 % of control

Fc1ccc(C=C2c3ccccc3-c3ccccc32)cc1
inactive: dose: 25.0 mg/kg/injection, schedule: Q04DX002 (ip), vehicle: gum acacia 109 % of control | dose: 50.0 mg/kg/injection, schedule: Q04DX002 (ip), vehicle: gum acacia 92 % of control | dose: 100.0 mg/kg/injection, schedule: Q04DX002 (ip), vehicle: gum acacia 92 % of control

NC(CSC(c1ccccc1)c1ccccc1)C(=O)O (stereo not given)
inactive: dose: 10.0 mg/kg/injection, schedule: Q01DX015 (ip), vehicle: saline 97 % of control | dose: 20.0 mg/kg/injection, schedule: Q01DX015 (ip), vehicle: saline 91 % of control | dose: 40.0 mg/kg/injection, schedule: Q01DX015 (ip), vehicle: saline 95 % of control | [11] 98 % of control | dose: 79.0 mg/kg/injection, schedule: Q01DX015 (ip), vehicle: saline 92 % of control | dose: 100.0 mg/kg/injection, schedule: Q01DX001 (ip), vehicle: carboxymethylcellulose (CMC) 101 % of control | [9] 101 % of control | dose: 158.0 mg/kg/injection, schedule: Q01DX015 (ip), vehicle: saline 95 % of control | dose: 200.0 mg/kg/injection, schedule: Q01DX001 (ip), vehicle: carboxymethylcellulose (CMC) 87 % of control | [10] 100 % of control | dose: 316.0 mg/kg/injection, schedule: Q01DX015 (ip), vehicle: saline 98 % of control | dose: 400.0 mg/kg/injection, schedule: Q01DX001 (ip), vehicle: carboxymethylcellulose (CMC) 87 % of control | [15] 101 % of control | dose: 632.0 mg/kg/injection, schedule: Q01DX015 (ip), vehicle: saline 97 % of control

O=C(OCc1ccccc1CN1CCCC1)c1cccc(Cl)c1
inactive: dose: 100.0 mg/kg/injection, schedule: Q01DX001 (ip), vehicle: Klucel (hydroxypropylcellulose) (HPC) 102 % of control | dose: 200.0 mg/kg/injection, schedule: Q01DX001 (ip), vehicle: Klucel (hydroxypropylcellulose) (HPC) 117 % of control

Cc1cccc(NC(=O)COc2ccc(C)cc2C)c1
inactive: [13] 103 % of control | [14] 92 % of control | [16] 95 % of control

O=C(O)c1ccccc1C(=O)Nc1ccc(F)cc1
inactive: [2] 103 % of control | [10] 106 % of control | [4] 87 % of control | [15] 96 % of control | [5] 94 % of control

C1=CC2(CC=C1C1=CCC3(C=C1)SCCS3)SCCS2
inactive: [12] 108 % of control | [13] 101 % of control | [14] 104 % of control

NC(=O)C(Cl)Cl
inactive: [6] 113 % of control | [7] 103 % of control | [8] 94 % of control

CCCCOC(=O)C(O)C(C)(Cl)c1ccccc1 (stereo not given)
inactive: [13] 106 % of control | [14] 103 % of control | [16] 106 % of control

CCCOP(=S)(NCCOC)OCCC
inactive: dose: 100.0 mg/kg/injection, schedule: Q01DX009 (ip), vehicle: saline with Tween-80 97 % of control | dose: 200.0 mg/kg/injection, schedule: Q01DX009 (ip), vehicle: saline with Tween-80 100 % of control | dose: 400.0 mg/kg/injection, schedule: Q01DX009 (ip), vehicle: saline with Tween-80 89 % of control

CC(=O)Oc1ccc(N2C(=O)C=CC2=O)cc1
inactive: dose: 3.12 mg/kg/injection, schedule: Q01DX009 (ip), vehicle: Klucel (hydroxypropylcellulose) (HPC) 97 % of control | dose: 6.25 mg/kg/injection, schedule: Q01DX009 (ip), vehicle: Klucel (hydroxypropylcellulose) (HPC) 96 % of control | dose: 12.5 mg/kg/injection, schedule: Q01DX009 (ip), vehicle: Klucel (hydroxypropylcellulose) (HPC) 100 % of control | dose: 25.0 mg/kg/injection, schedule: Q04DX003 (ip), vehicle: Klucel (hydroxypropylcellulose) (HPC) 118 % of control

CN(C)C=Nc1cc2c3c(c1)CCCN3CCC2
inactive: dose: 12.5 mg/kg/injection, schedule: Q01DX001 (ip), vehicle: saline 103 % of control | dose: 25.0 mg/kg/injection, schedule: Q01DX001 (ip), vehicle: saline 105 % of control
